Data on seven compounds can be found in paper PMC9027176 (Viruses, 2022).

Where no end group is shown, it is not given here.

KsBcl-2, sequence (F5HGJ3 1-146 V117A): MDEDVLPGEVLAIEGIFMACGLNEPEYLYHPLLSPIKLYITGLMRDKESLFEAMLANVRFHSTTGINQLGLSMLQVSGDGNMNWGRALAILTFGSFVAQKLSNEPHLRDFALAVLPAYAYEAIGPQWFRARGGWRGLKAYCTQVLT

The first assay concerns the target KsBcl-2 (Human herpesvirus 8 type P, UniProt F5HGJ3, V117A). The assay is described as follows: biochemical. The class given is binding, Kaposi's sarcoma-associated herpesvirus.
Conditions: not given
For the compound PAELEVECATQLRRFGDKLNFRQKLL [Noxa], inhibition was half-maximal at 220 nM (IC50).

The assay is the same for the next values; noted with them: SEM.
In the case of `CC[C@H](C)[C@H](NC(=O)[C@H](CCC(=O)O)NC(=O)[C@H](CCCN=C(N)N)NC(=O)[C@H](C)NC(=O)[C@H](Cc1c[nH]c2ccccc12)NC(=O)[C@H](CCC(N)=O)NC(=O)[C@H](CCC(=O)O)NC(=O)[C@@H](N)CCC(=O)O)C(=O)NCC(=O)N[C@@H](C)C(=O)N[C@@H](CCC(N)=O)C(=O)N[C@@H](CC(C)C)C(=O)N[C@@H](CCCN=C(N)N)C(=O)N[C@@H](CCCN=C(N)N)C(=O)N[C@@H](CCSC)C(=O)N[C@@H](C)C(=O)N[C@@H](CC(=O)O)C(=O)N[C@@H](CC(=O)O)C(=O)N[C@@H](CC(C)C)C(=O)N[C@@H](CC(N)=O)C(=O)N[C@@H](C)C(=O)N[C@@H](CCC(N)=O)C(=O)N[C@@H](Cc1ccc(O)cc1)C(=O)N[C@@H](CCC(=O)O)C(=O)N[C@@H](CCCN=C(N)N)C(=O)N[C@@H](CCCN=C(N)N)C(=O)O` [Puma], the half-inhibitory concentration (IC50) was found to be 26 ± 9 nM.
Regarding `CC[C@H](C)[C@H](NC(=O)[C@H](CS)NC(=O)[C@H](C)NC(=O)[C@H](CC(C)C)NC(=O)[C@H](CCCNC(=N)N)NC(=O)[C@H](CC(C)C)NC(=O)[C@H](C)NC(=O)[C@H](CC(C)C)NC(=O)[C@H](C)NC(=O)[C@H](CC(=O)O)NC(=O)[C@H](CO)NC(=O)CNC(=O)[C@H](CCC(=O)O)NC(=O)[C@@H](N)CCSC)C(=O)NCC(=O)N[C@@H](CC(=O)O)C(=O)N[C@@H](CCC(=O)O)C(=O)N[C@@H](CCSC)C(=O)N[C@@H](CC(=O)O)C(=O)N[C@H](C(=O)N[C@@H](CO)C(=O)N[C@@H](CC(C)C)C(=O)N[C@@H](CCCNC(=N)N)C(=O)N[C@@H](C)C(=O)N1CCC[C@H]1C(=O)O)C(C)C` [Bik], the 50% inhibitory concentration (IC50) came out at 64 ± 4 nM. This IC50 lies about 2.5-fold higher than the previous one.
VPGRLAEVCAVLLRLGDELEMIRPSV [Bok] had a half-inhibitory concentration (IC50) of 198 ± 13 nM. This IC50 lies about 3.1-fold higher than the previous one.
Consider `CC[C@H](C)[C@H](NC(=O)[C@H](CC(N)=O)NC(=O)[C@H](CCCNC(=N)N)NC(=O)[C@@H](NC(=O)[C@@H](NC(=O)[C@H](CC(=O)O)NC(=O)[C@H](CCC(=O)O)NC(=O)[C@H](CCC(N)=O)NC(=O)[C@H](CO)NC(=O)[C@H](CCC(=O)O)NC(=O)[C@@H](N)CO)[C@@H](C)CC)[C@@H](C)CC)C(=O)N[C@@H](C)C(=O)N[C@@H](CCCNC(=N)N)C(=O)N[C@@H](Cc1c[nH]cn1)C(=O)N[C@@H](CC(C)C)C(=O)N[C@@H](C)C(=O)N[C@@H](CCC(N)=O)C(=O)N[C@H](C(=O)NCC(=O)N[C@@H](CC(=O)O)C(=O)N[C@@H](CO)C(=O)N[C@@H](CCSC)C(=O)N[C@@H](CC(=O)O)C(=O)N[C@@H](CCCNC(=N)N)C(=O)N[C@@H](CO)C(=O)N[C@H](C(=O)N1CCC[C@H]1C(=O)N1CCC[C@H]1C(=O)NCC(=O)N[C@@H](CC(C)C)C(=O)N[C@H](C(=O)N[C@@H](CC(N)=O)C(=O)NCC(=O)N[C@@H](CC(C)C)C(=O)O)C(C)C)[C@@H](C)CC)C(C)C` [Bid], for which the midpoint of inhibition, the IC50, lay at 20 ± 9 nM. Compared with the last compound, the IC50 is about 9.9-fold lower.
PSSTMGQVGRQLAIIGDDINRRYDSE [Bak]: the IC50 amounted to 8 nM.
For VPQDASTKKLSECLKRIGDELDSNMELQ [Bax], the midpoint of inhibition, the IC50, lay at 16 nM.
